In the assay the target is T1, Mcl-1/Bim interaction, recombinant human Mcl-1 (171-327) (Homo sapiens, UniProt Q07820).
T1 construct: made in house
Nature of the assay: Cell free Mcl-1: Bim Affinity Assay (Mcl-1 HTRF). The assay is classed as binding. The method, then:
Cell free Mcl-1: Bim Affinity Assay (Mcl-1 HTRF)
The inhibition of the Mcl-1/Bim interaction was measured using a time-resolved fluorescence resonance energy transfer (TR-FRET) assay. […] A biotinylated peptide derived from human Bim (residues 51-76) was purchased from CPC Scientific (San Jose, CA). The TR-FRET assay was conducted in a 384-well white OptiPlatem (PerkinElmer, Waltham, MA) in a total volume of 40 μL. […] The reaction plates were further incubated overnight and then were read on an Envision® multimode reader (PerkinElmer). […] The IC50 values of test compounds were determined from duplicate data by analyzing competition curves using a four-parameter sigmoidal model in GraphPad Prism (GraphPad Software, San Diego, CA) or in Genedata Screener® (Genedata, Basel, Switzerland).

Where [1] appears, read: TR-FRET, 0.1 nM Mcl-1 (171-327), 0.05 nM biotin-Bim (51-76).
Setting [2] is: cell free Mcl-1:Bim TR-FRET, recombinant human Mcl-1 (171-327).

SMILES strings stand for the structures.

T1 sequence (Q07820 171-327): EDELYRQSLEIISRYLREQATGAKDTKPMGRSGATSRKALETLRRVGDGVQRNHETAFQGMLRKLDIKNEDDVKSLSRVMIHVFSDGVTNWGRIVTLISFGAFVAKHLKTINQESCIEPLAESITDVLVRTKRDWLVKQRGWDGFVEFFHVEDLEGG

Take `O=C1NS(=O)(=O)CCCCCS(=O)(=O)C2CCC2CN2C[C@@]3(CCCc4cc(Cl)ccc43)COc3ccc1cc32` (mixture of isomers) [Example 196]: the half-maximal inhibitory concentration (IC50) under setting [1] was 22.2 nM.

As for `CC(=O)N1C/C=C/CS(=O)(=O)NC(=O)c2ccc3c(c2)N(C[C@@H]2CC[C@H]2C1)C[C@@]1(CCCc2cc(Cl)ccc21)CO3.CC(=O)N1C/C=C\CS(=O)(=O)NC(=O)c2ccc3c(c2)N(C[C@@H]2CC[C@H]2C1)C[C@@]1(CCCc2cc(Cl)ccc21)CO3` (mixture of isomers) [Example 371, (1S,3′R,6′R,10′E)-8′-acetyl-6-chloro-3,4-dihydro-2H,15′H-spiro[naphthalene-1,22′-[20]oxa[13]thia[1,8,14]triazatetracyclo[14.7.2.0^3,6.0^19,24]pentacosa[10,16,18,24]tetraen]-15′-one 13′,13′-dioxide and (1S,3′R,6′R,10′Z)-8′-acetyl-6-chloro-3,4-dihydro-2H,15′H-spiro[naphthalene-1,22′-[20]oxa[13]thia[1,8,14]triazatetracyclo[14.7.2.0^3,6.0^19,24]pentacosa[10,16,18,24]tetraen]-15′-one 13′,13′-dioxide], the IC50 under setting [1] was found to be 20.8 nM.

As to `O=C1NS(=O)(=O)C[C@@H](CO)C/C=C/C[C@H](O)[C@@H]2CC[C@H]2CN2C[C@@]3(CCCc4cc(Cl)ccc43)COc3ccc1cc32.O=C1NS(=O)(=O)C[C@H](CO)C/C=C/C[C@H](O)[C@@H]2CC[C@H]2CN2C[C@@]3(CCCc4cc(Cl)ccc43)COc3ccc1cc32` (mixture of isomers) [Example 710], under setting [2], the 50% inhibitory concentration (IC50) worked out at 25.6 nM.

For `O=C1NS(=O)(=O)CCC=CC(O)C2CCC2CN2CC3(CCCc4cc(Cl)ccc43)COc3ccc1cc32` (mixture of isomers) [Example 776, (1S,3′R,6′R,7′S,8′E)-6-chloro-7′-hydroxy-3,4-dihydro-2H,14′H-spiro[naphthalene-1,21′-[19]oxa[12]thia[1,13]diazatetracyclo [13.7.2.0^3,6.0^18,23]tetracosa[8,15,17,23]tetraen]-14′-one 12′,12′-dioxide and (1S,3′R,6′R,7′S,8′Z)-6-chloro-7′-hydroxy-3,4-dihydro-2H,14′H-spiro[naphthalene-1,21′-[19]oxa[12]thia[1,13]diazatetracyclo[13.7.2.0^3,6.0^18,23]tetracosa[8,15,17,23]tetraen]-14′-one 12′,12′-dioxide], under setting [2], the half-maximal inhibitory concentration (IC50) amounted to 2.71 nM.

For the compound `O=C1NS(=O)(=O)C[C@@H]2C[C@@H]2CC[C@H](O)[C@@H]2CC[C@H]2CN2C[C@@]3(CCCc4cc(Cl)ccc43)COc3ccc1cc32.O=C1NS(=O)(=O)C[C@H]2C[C@H]2CC[C@H](O)[C@@H]2CC[C@H]2CN2C[C@@]3(CCCc4cc(Cl)ccc43)COc3ccc1cc32` (mixture of isomers) [Example 787], the concentration for half-maximal inhibition (IC50) under setting [2] worked out at 21.4 nM.

In the case of `O=C1NS(=O)(=O)CCCCCC(=NO)C2CCC2CN2CC3(CCCc4cc(Cl)ccc43)COc3ccc1cc32` (mixture of isomers) [Example 932, (1S,3′R,6′R,7′Z)-6-chloro-3,4-dihydro-2H,7′H,15′H-spiro[naphthalene-1,22′-[20]oxa[13]thia[1,14]diazatetracyclo[14.7.2.0^3,6.0^19,24]pentacosa [16,18,24]triene]-7,15′-dione 7-OXIME 13′,13′-dioxide and (1S,3′R,6′R,7′E)-6-chloro-3,4-dihydro-2H,7′H,15′H-spiro[naphthalene-1,22′-[20]oxa[13]thia[1,14]diazatetracyclo[14.7.2.0^3,6.0^19,24]pentacosa [16,18,24]triene]-7′,15′-dione 7-OXIME 13′,13′-dioxide], under setting [2], the half-maximal inhibitory concentration (IC50) came out at 3.69 nM.

As for `CC[C@@H]1CC/C=C/[C@H](OCCO[C@H]2CCCCO2)[C@@H]2CC[C@H]2CN2C[C@@]3(CCCc4cc(Cl)ccc43)COc3ccc(cc32)C(=O)NS1(=O)=O` (mixture of isomers) [Example 969], the IC50 under setting [1] was determined as 2.91 nM.

Turning to `CCC1CCC=CC(OC(C)C(=O)N(C)C)C2CCC2CN2CC3(CCCc4cc(Cl)ccc43)COc3ccc(cc32)C(=O)NS1(=O)=O` (mixture of isomers) [Example 985], under setting [1], the concentration for half-maximal inhibition (IC50) is 1.46 nM.

As to `CCN1CC/C=C\[C@H](O)[C@@H]2CC[C@H]2CN2C[C@@]3(CCCc4cc(Cl)ccc43)COc3ccc(cc32)C(=O)NS1(=O)=O` (single isomer, unassigned) [Example 30], the 50% inhibitory concentration (IC50) under setting [1] came to 1.92 nM.

In the case of `CO[C@H]1/C=C/CCNS(=O)(=O)NC(=O)c2ccc3c(c2)N(C[C@@H]2CC[C@H]21)C[C@@]1(CCCc2cc(Cl)ccc21)CO3` (single isomer, unassigned) [Example 46], under setting [1], the IC50 stood at 0.367 nM.

As for `O=C1NS(=O)(=O)C/C=C/CNC(=O)[C@@H]2CC[C@H]2CN2C[C@@]3(CCCc4cc(Cl)ccc43)COc3ccc1cc32` (single isomer, unassigned) [Example 97, (1S,3′R,6′R,10′E)-6-chloro-3,4-dihydro-2H,7′H,15′H-spiro[naphthalene-1,22′-[20]oxa[13]thia[1,8,14]triazatetracyclo[14.7.2.0^3,6.0^19,24]pentacosa[10,16,18,24]tetraen]-7′,15′-dione 13′,13′-dioxide or (1S,3′R,6′R,10′Z)-6-chloro-3,4-dihydro-2H,7′H,15′H-spiro[naphthalene-1,22′-[20]oxa[13]thia[1,8,14]triazatetracyclo[14.7.2.0^3,6.0^19,24]pentacosa[10,16,18,24]tetraen]-7′,15′-dione 13′,13′-dioxide], the IC50 under setting [1] turned out to be 12.6 nM.

Regarding `O=C1NS(=O)(=O)C2CCCC(CCC(O)C3CCC3CN3CC4(CCCc5cc(Cl)ccc54)COc4ccc1cc43)C2` (single isomer, unassigned) [Example 106], under setting [1], the IC50 was 16.9 nM.

Regarding `C[C@@H]1CC/C=C/[C@H](O)[C@]2(C)CC[C@H]2CN2C[C@@]3(CCCc4cc(Cl)ccc43)COc3ccc(cc32)C(=O)NS1(=O)=O` (single isomer, unassigned) [Example 116], the IC50 under setting [1] is 0.856 nM.

With `C[C@@H]1CC/C=C/[C@H](O)[C@]2(C)CC[C@H]2CN2C[C@@]3(CCCc4cc(Cl)ccc43)COc3ccc(cc32)C(=O)NS1(=O)=O` (single isomer, unassigned) [Example 118], the IC50 under setting [1] was determined as 34.9 nM.

For `C[C@]12CC[C@H]1CN1C[C@@]3(CCCc4cc(Cl)ccc43)COc3ccc(cc31)C(=O)NS(=O)(=O)CCCCC[C@@H]2O` (single isomer, unassigned) [Example 121], under setting [1], the IC50 came to 12.2 nM.

Regarding `C[C@]12CC[C@H]1CN1C[C@@]3(CCCc4cc(Cl)ccc43)COc3ccc(cc31)C(=O)NS(=O)(=O)CCCCC[C@@H]2O` (single isomer, unassigned) [Example 122], under setting [1], the IC50 amounted to 7.17 nM.

As for `C[C@]12CC[C@H]1CN1C[C@@]3(CCCc4cc(Cl)ccc43)COc3ccc(cc31)C(=O)NS(=O)(=O)CCCCC[C@@H]2O` (single isomer, unassigned) [Example 123], the IC50 under setting [1] was determined as 4.3 nM.

For the compound `N#C[C@@H]1CC/C=C\[C@H](O)[C@@H]2CC[C@H]2CN2C[C@@]3(CCCc4cc(Cl)ccc43)COc3ccc(cc32)C(=O)NS1(=O)=O` (single isomer, unassigned) [Example 153], under setting [1], the concentration for half-maximal inhibition (IC50) was determined as 1.22 nM.

On to `CC[C@@H]1CC[C@@H](O)/C=C/[C@@H]2CC[C@H]2CN2C[C@@]3(CCCc4cc(Cl)ccc43)COc3ccc(cc32)C(=O)NS1(=O)=O` (single isomer, unassigned) [Example 198], for which the IC50 under setting [1] turned out to be 3.24 nM.

Turning to `O=C1NS(=O)(=O)[C@H]2C[C@@H](O)C[C@@H]2C/C=C/[C@H](O)[C@@H]2CC[C@H]2CN2C[C@@]3(CCCc4cc(Cl)ccc43)COc3ccc1cc32` (single isomer, unassigned) [Example 336], under setting [1], the IC50 turned out to be 1.51 nM.

For the compound `CC(=O)N1C[C@@H]2C/C=C/[C@H](O)[C@@H]3CC[C@H]3CN3C[C@@]4(CCCc5cc(Cl)ccc54)COc4ccc(cc43)C(=O)NS(=O)(=O)[C@H]2C1` (single isomer, unassigned) [Example 339], under setting [1], the IC50 was 2.71 nM.

With `CC[C@@H]1CCCOC[C@@H]2CC[C@H]2CN2C[C@@]3(CCCc4cc(Cl)ccc43)COc3ccc(cc32)C(=O)NS1(=O)=O` (single isomer, unassigned) [Example 368], the IC50 under setting [1] worked out at 3.74 nM.

In the case of `CC[C@H]1CCCOC[C@@H]2CC[C@H]2CN2C[C@@]3(CCCc4cc(Cl)ccc43)COc3ccc(cc32)C(=O)NS1(=O)=O` (single isomer, unassigned) [Example 369], the IC50 under setting [1] was 3.98 nM.

Turning to `O=C1NS(=O)(=O)[C@H](C(F)(F)F)CCCC[C@H](O)[C@@H]2CC[C@H]2CN2C[C@@]3(CCCc4cc(Cl)ccc43)COc3ccc1cc32` (single isomer, unassigned) [Example 432], the half-maximal inhibitory concentration (IC50) under setting [1] was determined as 0.996 nM.

In the case of `O=C1NS(=O)(=O)[C@@H](C(F)(F)F)CCCC[C@H](O)[C@@H]2CC[C@H]2CN2C[C@@]3(CCCc4cc(Cl)ccc43)COc3ccc1cc32` (single isomer, unassigned) [Example 433], under setting [1], the IC50 turned out to be 3.23 nM.

Regarding `CCC[C@@H]1CC/C=C/[C@H](O)[C@@H]2CC[C@H]2CN2C[C@@]3(CCCc4cc(Cl)ccc43)COc3ccc(cc32)C(=O)NS1(=O)=O` (single isomer, unassigned) [Example 434], under setting [1], the IC50 is 0.273 nM.

For `CN(C)C(=O)[C@@H]1CC/C=C/[C@H](O)[C@@H]2CC[C@H]2CN2C[C@@]3(CCCc4cc(Cl)ccc43)COc3ccc(cc32)C(=O)NS1(=O)=O` (single isomer, unassigned) [Example 436], under setting [1], the half-maximal inhibitory concentration (IC50) stood at 0.243 nM.

For `CN(C)C(=O)[C@H]1CC/C=C/[C@H](O)[C@@H]2CC[C@H]2CN2C[C@@]3(CCCc4cc(Cl)ccc43)COc3ccc(cc32)C(=O)NS1(=O)=O` (single isomer, unassigned) [Example 437], the half-maximal inhibitory concentration (IC50) under setting [1] is 3.77 nM.

As to `O=C1NS(=O)(=O)C(C(F)F)CCC=CC(O)C2CCC2CN2CC3(CCCc4cc(Cl)ccc43)COc3ccc1cc32` (single isomer, unassigned) [Example 438], under setting [1], the half-inhibitory concentration (IC50) was determined as 0.731 nM.

The values are drawn from US12091425B2 (AMGEN INC., priority 2016, dated 2024).
